The record followed here is patent publication US20050009840A1 (SUGEN, INC., priority 2003, published 2005).

A word on the inhibition: it is the drop in the measured response relative to a control, in per cent.

One assay deals with T1, HGFR (Homo sapiens, UniProt P08581).
T1 construct: purchased Upstate 14-526
T1 sequence (P08581 974-1390 limits assumed): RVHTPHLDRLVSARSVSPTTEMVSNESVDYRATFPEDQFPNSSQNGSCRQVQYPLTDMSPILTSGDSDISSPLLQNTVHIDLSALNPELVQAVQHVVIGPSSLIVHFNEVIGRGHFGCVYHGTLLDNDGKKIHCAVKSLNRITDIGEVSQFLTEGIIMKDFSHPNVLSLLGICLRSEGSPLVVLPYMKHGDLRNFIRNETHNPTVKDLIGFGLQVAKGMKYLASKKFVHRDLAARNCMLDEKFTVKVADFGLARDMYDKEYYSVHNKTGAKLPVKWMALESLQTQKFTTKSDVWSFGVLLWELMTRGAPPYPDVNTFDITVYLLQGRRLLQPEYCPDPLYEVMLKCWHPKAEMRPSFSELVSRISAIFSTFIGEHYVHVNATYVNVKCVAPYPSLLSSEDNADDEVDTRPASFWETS
Nature of the assay: HGFR continuous-coupled spectrophotometric assay. The format is biochemical. To be noted: at 1 pM; Table 7, library procedure 42; read-out: % Inhibition (percent c-MET inhibition).
For `Nc1ncc(-c2ccc(C(=O)N3CCC(N4CCCC4)CC3)cc2)cc1OCc1cc(F)ccc1F`, the inhibition at 1 pM was found to be 24%.

As for `Nc1ncc(-c2ccc(C(=O)N3CCC(N4CCCC4)CC3)cc2)cc1OCc1csc(-c2ccc(Cl)cc2)n1`, the inhibition at 1 pM was 9%.

Take `Cc1nc(COc2cc(-c3ccc(C(=O)N4CCC(N5CCCC5)CC4)cc3)cnc2N)cs1`: the inhibition at 1 pM came out at 6%.

For `Nc1ncc(-c2ccc(C(=O)N3CCC(N4CCCC4)CC3)cc2)cc1OCc1noc(-c2cccc(C(F)(F)F)c2)n1`, the inhibition at 1 pM was 27%.

For the compound `Cc1noc(C)c1COc1cc(-c2ccc(C(=O)N3CCC(N4CCCC4)CC3)cc2)cnc1N`, the inhibition at 1 pM is 10%.

Regarding `Nc1ncc(-c2ccc(C(=O)N3CCC(N4CCCC4)CC3)cc2)cc1OCc1ccc(Cl)s1`, the inhibition at 1 pM was found to be 19%.

For the compound `Nc1ncc(-c2ccc(C(=O)N3CCC(N4CCCC4)CC3)cc2)cc1OCc1ccncc1`, the inhibition at 1 pM was determined as 10%.

In the case of `Nc1ncc(-c2ccc(C(=O)N3CCC(N4CCCC4)CC3)cc2)cc1OCc1ccc(OCc2ccccc2)cc1`, the inhibition at 1 pM was found to be 49%.

Take `COc1ccc(OC)c(COc2cc(-c3ccc(C(=O)N4CCC(N5CCCC5)CC4)cc3)cnc2N)c1`: the inhibition at 1 pM is 19%.

As to `Nc1ncc(-c2ccc(C(=O)N3CCC(N4CCCC4)CC3)cc2)cc1OCc1nsc(Cl)n1`, the inhibition at 1 pM worked out at 5%.

On to `Nc1ncc(-c2ccc(C(=O)N3CCC(N4CCCC4)CC3)cc2)cc1OCC1=C(Cl)SNN1`, for which the inhibition at 1 pM stood at 19%.

Regarding `Cc1ccc(-c2nnc(COc3cc(-c4ccc(C(=O)N5CCC(N6CCCC6)CC5)cc4)cnc3N)o2)cc1`, the inhibition at 1 pM was determined as 18%.

On to `Nc1ncc(-c2ccc(C(=O)N3CCC(N4CCCC4)CC3)cc2)cc1OCc1cc(-c2ccccc2)no1`, for which the inhibition at 1 pM is 23%.

With `Cc1cc(COc2cc(-c3ccc(C(=O)N4CCC(N5CCCC5)CC4)cc3)cnc2N)no1`, the inhibition at 1 pM came to 16%.

For the compound `COC(=O)Nc1cc(COc2cc(-c3ccc(C(=O)N4CCC(N5CCCC5)CC4)cc3)cnc2N)on1`, the inhibition at 1 pM came to 18%.

For the compound `Cn1ccnc1COc1cc(-c2ccc(C(=O)N3CCC(N4CCCC4)CC3)cc2)cnc1N`, the inhibition at 1 pM came to 14%.

In the case of `Cc1nc(COc2cc(-c3ccc(C(=O)N4CCC(N5CCCC5)CC4)cc3)cnc2N)n(C)n1`, the inhibition at 1 pM was 14%.

Take `Nc1ncc(-c2ccc(C(=O)N3CCC(N4CCCC4)CC3)cc2)cc1OCc1nc2cc(C(F)(F)F)ccc2s1`: the inhibition at 1 pM amounted to 34%.

Regarding `Nc1ncc(-c2ccc(C(=O)N3CCC(N4CCCC4)CC3)cc2)cc1OCc1ccc2ccc(Cl)cc2n1`, the inhibition at 1 pM was 24%.

On to `Cc1oc(-c2ccccc2)nc1COc1cc(-c2ccc(C(=O)N3CCC(N4CCCC4)CC3)cc2)cnc1N`, for which the inhibition at 1 pM worked out at 19%.

Turning to `Cc1cc(=O)n2nc(COc3cc(-c4ccc(C(=O)N5CCC(N6CCCC6)CC5)cc4)cnc3N)nc2[nH]1`, the inhibition at 1 pM is 18%.

Consider `Nc1ncc(-c2ccc(C(=O)N3CCC(N4CCCC4)CC3)cc2)cc1OCc1nnnn1Cc1ccccc1`, for which the inhibition at 1 pM was found to be 19%.

For the compound `Nc1ncc(-c2ccc(C(=O)N3CCC(N4CCCC4)CC3)cc2)cc1OCc1nc2ncc(Cl)cc2[nH]1`, the inhibition at 1 pM turned out to be 16%.

Take `Nc1ncc(-c2ccc(C(=O)N3CCC(N4CCCC4)CC3)cc2)cc1OCc1nc2cccnc2[nH]1`: the inhibition at 1 pM was 17%.

In the case of `Nc1ncc(-c2ccc(C(=O)N3CCC(N4CCCC4)CC3)cc2)cc1OCc1nc2ncccc2o1`, the inhibition at 1 pM was found to be 17%.

Take `COc1cc(OC)nc(COc2cc(-c3ccc(C(=O)N4CCC(N5CCCC5)CC4)cc3)cnc2N)n1`: the inhibition at 1 pM turned out to be 20%.

Consider `Cc1[nH]cnc1COc1cc(-c2ccc(C(=O)N3CCC(N4CCCC4)CC3)cc2)cnc1N`, for which the inhibition at 1 pM came out at 12%.

As to `CCCCc1nc(COc2cc(-c3ccc(C(=O)N4CCC(N5CCCC5)CC4)cc3)cnc2N)c[nH]1`, the inhibition at 1 pM is 16%.

As to `COc1ccnc(COc2cc(-c3ccc(C(=O)N4CCC(N5CCCC5)CC4)cc3)cnc2N)c1OC`, the inhibition at 1 pM is 23%.

On to `Nc1ncc(-c2ccc(C(=O)N3CCC(N4CCCC4)CC3)cc2)cc1OCc1cn2cc(Cl)ccc2n1`, for which the inhibition at 1 pM was determined as 16%.

Take `Cc1cccnc1COc1cc(-c2ccc(C(=O)N3CCC(N4CCCC4)CC3)cc2)cnc1N`: the inhibition at 1 pM is 16%.

`Cc1ccn2cc(COc3cc(-c4ccc(C(=O)N5CCC(N6CCCC6)CC5)cc4)cnc3N)nc2c1`: the inhibition at 1 pM amounted to 16%.

For the compound `Cc1oc(-c2ccc(F)cc2)nc1COc1cc(-c2ccc(C(=O)N3CCC(N4CCCC4)CC3)cc2)cnc1N`, the inhibition at 1 pM came to 17%.

On to `Cc1cccc(COc2cc(-c3ccc(C(=O)N4CCC(N5CCCC5)CC4)cc3)cnc2N)n1`, for which the inhibition at 1 pM came to 17%.

For `Cc1cc(C)nc(COc2cc(-c3ccc(C(=O)N4CCC(N5CCCC5)CC4)cc3)cnc2N)n1`, the inhibition at 1 pM came out at 16%.

For the compound `COc1ccccc1-c1nc(COc2cc(-c3ccc(C(=O)N4CCC(N5CCCC5)CC4)cc3)cnc2N)c(C)o1`, the inhibition at 1 pM worked out at 19%.

As for `CCc1ccc(COc2cc(-c3ccc(C(=O)N4CCC(N5CCCC5)CC4)cc3)cnc2N)nc1`, the inhibition at 1 pM was found to be 15%.

For the compound `Cc1oc(-c2cccc(F)c2)nc1COc1cc(-c2ccc(C(=O)N3CCC(N4CCCC4)CC3)cc2)cnc1N`, the inhibition at 1 pM stood at 8%.

As for `Cn1nc(C(F)(F)F)c2cc(COc3cc(-c4ccc(C(=O)N5CCC(N6CCCC6)CC5)cc4)cnc3N)sc21`, the inhibition at 1 pM was found to be 14%.

Consider `Nc1ncc(-c2ccc(C(=O)N3CCC(N4CCCC4)CC3)cc2)cc1OCc1cc(-c2ccc(Cl)cc2)no1`, for which the inhibition at 1 pM turned out to be 23%.

Take `Cn1nc(CC2CC2)nc1COc1cc(-c2ccc(C(=O)N3CCC(N4CCCC4)CC3)cc2)cnc1N`: the inhibition at 1 pM stood at 7%.

In the case of `Nc1ncc(-c2ccc(C(=O)N3CCC(N4CCCC4)CC3)cc2)cc1OCc1cnc(N)c(N)n1`, the inhibition at 1 pM was 9%.

As for `Cn1nc(-c2ccccc2)nc1COc1cc(-c2ccc(C(=O)N3CCC(N4CCCC4)CC3)cc2)cnc1N`, the inhibition at 1 pM stood at 5%.

`Cn1nc(C2CC2)nc1COc1cc(-c2ccc(C(=O)N3CCC(N4CCCC4)CC3)cc2)cnc1N`: the inhibition at 1 pM came to 5%.

On to `Cc1ccnc2nc(COc3cc(-c4ccc(C(=O)N5CCC(N6CCCC6)CC5)cc4)cnc3N)cn12`, for which the inhibition at 1 pM amounted to 10%.

Regarding `Nc1ncc(-c2ccc(C(=O)N3CCC(N4CCCC4)CC3)cc2)cc1OCc1ncccn1`, the inhibition at 1 pM was 9%.

In the case of `CCc1ccn2cc(COc3cc(-c4ccc(C(=O)N5CCC(N6CCCC6)CC5)cc4)cnc3N)nc2c1`, the inhibition at 1 pM turned out to be 9%.

Take `Nc1nc(COc2cc(-c3ccc(C(=O)N4CCC(N5CCCC5)CC4)cc3)cnc2N)nc(Nc2ccccc2)n1`: the inhibition at 1 pM was found to be 9%.

Regarding `Nc1ncc(-c2ccc(C(=O)N3CCC(N4CCCC4)CC3)cc2)cc1OCc1nccn1Cc1ccccc1`, the inhibition at 1 pM was 8%.

On to `N#Cc1ccc(COc2cc(-c3ccc(C(=O)N4CCC(N5CCCC5)CC4)cc3)cnc2N)cc1`, for which the inhibition at 1 pM was determined as 8%.

For the compound `Nc1ncc(-c2ccc(C(=O)N3CCC(N4CCCC4)CC3)cc2)cc1OCc1ccc2ccccc2c1`, the inhibition at 1 pM stood at 27%.

On to `N#Cc1cccc(COc2cc(-c3ccc(C(=O)N4CCC(N5CCCC5)CC4)cc3)cnc2N)c1`, for which the inhibition at 1 pM was found to be 12%.

For the compound `Nc1ncc(-c2ccc(C(=O)N3CCC(N4CCCC4)CC3)cc2)cc1OCc1ccc(F)cc1F`, the inhibition at 1 pM came out at 18%.

On to `Nc1ncc(-c2ccc(C(=O)N3CCC(N4CCCC4)CC3)cc2)cc1OCc1nc2ccccc2[nH]1`, for which the inhibition at 1 pM stood at 4%.

As to `Nc1ncc(-c2ccc(C(=O)N3CCC(N4CCCC4)CC3)cc2)cc1OCc1noc(-c2ccccc2)n1`, the inhibition at 1 pM came to 16%.

`CC(C)Cc1noc(COc2cc(-c3ccc(C(=O)N4CCC(N5CCCC5)CC4)cc3)cnc2N)n1`: the inhibition at 1 pM was determined as 12%.

For `Nc1ncc(-c2ccc(C(=O)N3CCC(N4CCCC4)CC3)cc2)cc1OCc1nc(-c2ccccc2)n[nH]1`, the inhibition at 1 pM is -2%.

On to `Nc1ncc(-c2ccc(C(=O)N3CCC(N4CCCC4)CC3)cc2)cc1OCc1ccc(Cl)cc1Br`, for which the inhibition at 1 pM worked out at 28%.

For `Cc1cnccc1COc1cc(-c2ccc(C(=O)N3CCC(N4CCCC4)CC3)cc2)cnc1N`, the inhibition at 1 pM was 11%.

Take `CCc1nc(COc2cc(-c3ccc(C(=O)N4CCC(N5CCCC5)CC4)cc3)cnc2N)no1`: the inhibition at 1 pM worked out at 5%.

In the case of `Nc1ncc(-c2ccc(C(=O)N3CCC(N4CCCC4)CC3)cc2)cc1OCc1nc(NC2CC2)c2ccccc2n1`, the inhibition at 1 pM is 6%.

`Nc1ncc(-c2ccc(C(=O)N3CCC(N4CCCC4)CC3)cc2)cc1OCc1nc(NCCO)c2ccccc2n1`: the inhibition at 1 pM is 7%.

Consider `CCOC(=O)c1nc(COc2cc(-c3ccc(C(=O)N4CCC(N5CCCC5)CC4)cc3)cnc2N)no1`, for which the inhibition at 1 pM turned out to be 8%.

For `CNC(=O)c1ccc(OC)c(-c2noc(COc3cc(-c4ccc(C(=O)N5CCC(N6CCCC6)CC5)cc4)cnc3N)n2)c1`, the inhibition at 1 pM is 11%.

Consider `Nc1ncc(-c2ccc(C(=O)N3CCC(N4CCCC4)CC3)cc2)cc1OCc1nc(-c2ccc(C(=O)N3CCCC3)cc2)no1`, for which the inhibition at 1 pM stood at 11%.

Consider `Nc1ncc(-c2ccc(C(=O)N3CCC(N4CCCC4)CC3)cc2)cc1OCc1nc(-c2cccc(C(=O)Nc3ccc(F)cc3)c2)no1`, for which the inhibition at 1 pM is 64%.

On to `CC(C)NC(=O)c1ccc(-c2noc(COc3cc(-c4ccc(C(=O)N5CCC(N6CCCC6)CC5)cc4)cnc3N)n2)cc1`, for which the inhibition at 1 pM worked out at 18%.

Still in this assay, the particulars now being: at 1 μM; Table 8, library procedure 43; read-out: % Inhibition (percent c-MET inhibition).
As for `CC1CN(C(=O)c2ccc(-c3cnc(N)c(OCc4ccc(F)cc4F)c3)cc2)CC(C)N1` (stereo not shown), the inhibition at 1 µM was 20%.

For `CC1CN(C(=O)c2ccc(-c3cnc(N)c(OCc4ccc(C(=O)NCc5cccnc5)cc4)c3)cc2)CC(C)N1` (stereo not shown), the inhibition at 1 µM worked out at 8%.

As to `CC1CN(C(=O)c2ccc(-c3cnc(N)c(OCc4ccc(C(=O)NC5CCN(Cc6ccccc6)C5)cc4)c3)cc2)CC(C)N1` (stereo not shown), the inhibition at 1 µM stood at 19%.

In the case of `CC1CN(C(=O)c2ccc(-c3cnc(N)c(OCc4cccc(C(=O)Nc5ccc(N6CCCCC6)cc5)c4)c3)cc2)CC(C)N1` (stereo not shown), the inhibition at 1 µM is 28%.

In the case of `CC1CN(C(=O)c2ccc(-c3cnc(N)c(OCc4ccc5nc(C(F)(F)F)cc(OC(C)C)c5c4)c3)cc2)CC(C)N1` (stereo not shown), the inhibition at 1 µM is 17%.

On to `CC1CN(C(=O)c2ccc(-c3cnc(N)c(OCc4ccc5ccccc5c4Br)c3)cc2)CC(C)N1` (stereo not shown), for which the inhibition at 1 µM came to 58%.
